Assay results published in ChEMBL document CHEMBL1201862, “PubChem BioAssay data set” (2004).
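Tested at 5 concentrations; 48 h exposure; 96-well plates; endpoints linearly interpolated, else capped at highest concentration. Here, GI50 denotes the concentration required for 50% inhibition of growth.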 Calls of active or inactive are those of the source. Cut-off read from the data, not from the text of the source: active = GI50 up to about 1.1 µM and inactive = higher.

How the values were obtained:
Assay in all cases: DTP human tumour cell line panel, 48 h
786-0 = test system: 786-0
A498 = test system: A498
A549 = test system: A549
ACHN = test system: ACHN
BT-549 = test system: BT-549
CAKI-1 = test system: CAKI-1
CCRF-CEM = test system: CCRF-CEM
COLO 205 = test system: COLO 205
DU-145 = test system: DU-145
EKVX = test system: EKVX
HCC 2998 = test system: HCC 2998
HCT-116 = test system: HCT-116
HCT-15 = test system: HCT-15
HL-60 = test system: HL-60
HOP-62 = test system: HOP-62
HOP-92 = test system: HOP-92
HT-29 = test system: HT-29
Hs-578T = test system: Hs-578T
IGROV-1 = test system: IGROV-1
K562 = test system: K562
KM12 = test system: KM12
LOX IMVI = test system: LOX IMVI
M14 = test system: M14
MCF7 = test system: MCF7
MDA-MB-231 = test system: MDA-MB-231
MDA-MB-435 = test system: MDA-MB-435
MDA-N = test system: MDA-N
MOLT-4 = test system: MOLT-4
Malme-3M = test system: Malme-3M
NCI-H226 = test system: NCI-H226
NCI-H23 = test system: NCI-H23
NCI-H460 = test system: NCI-H460
NCI-H522 = test system: NCI-H522
NCI/ADR-RES = test system: NCI/ADR-RES
OVCAR-3 = test system: OVCAR-3
OVCAR-4 = test system: OVCAR-4
OVCAR-5 = test system: OVCAR-5
OVCAR-8 = test system: OVCAR-8
PC-3 = test system: PC-3
RPMI-8226 = test system: RPMI-8226
RXF 393 = test system: RXF 393
SF-268 = test system: SF-268
SF-295 = test system: SF-295
SF-539 = test system: SF-539
SK-MEL-2 = test system: SK-MEL-2
SK-MEL-5 = test system: SK-MEL-5
SK-OV-3 = test system: SK-OV-3
SN12C = test system: SN12C
SNB-19 = test system: SNB-19
SNB-75 = test system: SNB-75
SW-620 = test system: SW-620
T47D = test system: T47D
TK-10 = test system: TK-10
U-251 = test system: U-251
UACC-257 = test system: UACC-257
UACC-62 = test system: UACC-62
UO-31 = test system: UO-31
SK-MEL-28 = test system: SK-MEL-28
SR = test system: SR

## O=c1ccc2nc3ccc(O)cc3oc-2c1
786-0
  GI50: 13.4 µM (inactive)
A498
  GI50: 35.2 µM (inactive)
A549
  GI50: 4.27 µM (inactive)
ACHN
  GI50: 8.11 µM (inactive)
BT-549
  GI50: 7.24 µM (inactive)
CAKI-1
  GI50: > 67.9 µM (inactive)
CCRF-CEM
  GI50: 34 µM (inactive)
COLO 205
  GI50: 6.25 µM (inactive)
DU-145
  GI50: 21 µM (inactive)
EKVX
  GI50: > 100 µM (inactive)
HCC 2998
  GI50: 25.6 µM (inactive)
HCT-116
  GI50: 16.4 µM (inactive)
HCT-15
  GI50: 13.5 µM
HL-60
  GI50: 10.5 µM (inactive)
HOP-62
  GI50: 17 µM (inactive)
HOP-92
  GI50: > 100 µM (inactive)
HT-29
  GI50: 24 µM (inactive)
Hs-578T
  GI50: 6.92 µM (inactive)
IGROV-1
  GI50: 39.5 µM (inactive)
K562
  GI50: 6.1 µM (inactive)
KM12
  GI50: 5.6 µM (inactive)
LOX IMVI
  GI50: 2.75 µM (inactive)
M14
  GI50: 4.3 µM (inactive)
MCF7
  GI50: 5.07 µM (inactive)
MDA-MB-231
  GI50: > 100 µM (inactive)
MDA-MB-435
  GI50: 1.83 µM (inactive)
MDA-N
  GI50: 1.91 µM (inactive)
MOLT-4
  GI50: 34 µM (inactive)
Malme-3M
  GI50: 2.72 µM (inactive)
NCI-H226
  GI50: 27.8 µM (inactive)
NCI-H23
  GI50: 3.56 µM (inactive)
NCI-H460
  GI50: 12 µM (inactive)
NCI-H522
  GI50: 5.32 µM (inactive)
NCI/ADR-RES
  GI50: 19.5 µM (inactive)
OVCAR-3
  GI50: 10.5 µM (inactive)
OVCAR-4
  GI50: > 68.1 µM (inactive)
OVCAR-5
  GI50: > 100 µM (inactive)
OVCAR-8
  GI50: 16.4 µM (inactive)
PC-3
  GI50: 4.69 µM (inactive)
RPMI-8226
  GI50: 3.3 µM (inactive)
RXF 393
  GI50: > 100 µM (inactive)
SF-268
  GI50: 28.8 µM (inactive)
SF-295
  GI50: 8.49 µM (inactive)
SF-539
  GI50: 4.7 µM (inactive)
SK-MEL-2
  GI50: 12.8 µM (inactive)
SK-MEL-5
  GI50: 1.6 µM (inactive)
SK-OV-3
  GI50: > 100 µM (inactive)
SN12C
  GI50: > 100 µM (inactive)
SNB-19
  GI50: 38.6 µM (inactive)
SNB-75
  GI50: 6.78 µM (inactive)
SW-620
  GI50: 13.2 µM (inactive)
T47D
  GI50: > 100 µM (inactive)
TK-10
  GI50: > 72.1 µM (inactive)
U-251
  GI50: 26.8 µM (inactive)
UACC-257
  GI50: 8.69 µM (inactive)
UACC-62
  GI50: 2.7 µM (inactive)
UO-31
  GI50: 5.75 µM (inactive)

## CC(=O)c1c(-c2ccco2)c(C#N)c(=S)n(C2OC(CO)C(O)C(O)C2O)c1C (stereo unspecified)
A549
  GI50: > 100 µM (inactive)
ACHN
  GI50: > 100 µM (inactive)
BT-549
  GI50: > 100 µM (inactive)
CAKI-1
  GI50: > 100 µM (inactive)
CCRF-CEM
  GI50: 83.9 µM (inactive)
COLO 205
  GI50: > 100 µM (inactive)
DU-145
  GI50: > 100 µM (inactive)
EKVX
  GI50: 82 µM (inactive)
HCT-116
  GI50: > 100 µM (inactive)
HCT-15
  GI50: > 100 µM
HL-60
  GI50: 50.9 µM (inactive)
HOP-62
  GI50: > 100 µM (inactive)
HT-29
  GI50: > 100 µM (inactive)
Hs-578T
  GI50: 64.9 µM (inactive)
IGROV-1
  GI50: > 100 µM (inactive)
K562
  GI50: 95.5 µM (inactive)
KM12
  GI50: > 100 µM (inactive)
LOX IMVI
  GI50: 56.6 µM (inactive)
M14
  GI50: 72.9 µM (inactive)
MCF7
  GI50: 88.5 µM (inactive)
MDA-MB-231
  GI50: > 100 µM (inactive)
MDA-MB-435
  GI50: 36.4 µM (inactive)
MDA-N
  GI50: 92.3 µM (inactive)
MOLT-4
  GI50: 47.2 µM (inactive)
Malme-3M
  GI50: > 100 µM (inactive)
NCI-H23
  GI50: > 100 µM (inactive)
NCI-H460
  GI50: > 100 µM (inactive)
NCI/ADR-RES
  GI50: 75.9 µM (inactive)
OVCAR-3
  GI50: > 100 µM (inactive)
OVCAR-4
  GI50: 75 µM (inactive)
OVCAR-5
  GI50: > 100 µM (inactive)
OVCAR-8
  GI50: > 100 µM (inactive)
PC-3
  GI50: > 100 µM (inactive)
RPMI-8226
  GI50: > 100 µM (inactive)
RXF 393
  GI50: > 100 µM (inactive)
SF-268
  GI50: > 100 µM (inactive)
SF-295
  GI50: > 100 µM (inactive)
SF-539
  GI50: 56 µM (inactive)
SK-MEL-28
  GI50: 87.7 µM (inactive)
SK-MEL-5
  GI50: 60.3 µM (inactive)
SK-OV-3
  GI50: > 100 µM (inactive)
SN12C
  GI50: 71.3 µM (inactive)
SNB-19
  GI50: 83.6 µM (inactive)
SNB-75
  GI50: 47.5 µM (inactive)
SR
  GI50: 97.5 µM (inactive)
SW-620
  GI50: > 100 µM (inactive)
T47D
  GI50: 35.5 µM (inactive)
TK-10
  GI50: > 100 µM (inactive)
U-251
  GI50: 51.1 µM (inactive)
UACC-257
  GI50: > 100 µM (inactive)
UACC-62
  GI50: 78.9 µM (inactive)
UO-31
  GI50: 56.6 µM (inactive)

## CCOC(=O)CC(=O)C(=O)NN=C1NCCN1
786-0
  GI50: > 100 µM (inactive)
A549
  GI50: > 100 µM (inactive)
ACHN
  GI50: > 100 µM (inactive)
BT-549
  GI50: > 100 µM (inactive)
CCRF-CEM
  GI50: > 100 µM (inactive)
COLO 205
  GI50: > 100 µM (inactive)
DU-145
  GI50: > 100 µM (inactive)
EKVX
  GI50: > 100 µM (inactive)
HCC 2998
  GI50: > 100 µM (inactive)
HCT-116
  GI50: > 100 µM (inactive)
HCT-15
  GI50: > 100 µM
HL-60
  GI50: > 100 µM (inactive)
HOP-62
  GI50: > 100 µM (inactive)
HOP-92
  GI50: > 100 µM (inactive)
HT-29
  GI50: > 100 µM (inactive)
Hs-578T
  GI50: > 100 µM (inactive)
IGROV-1
  GI50: > 100 µM (inactive)
K562
  GI50: > 100 µM (inactive)
KM12
  GI50: > 100 µM (inactive)
LOX IMVI
  GI50: > 100 µM (inactive)
M14
  GI50: > 100 µM (inactive)
MCF7
  GI50: > 100 µM (inactive)
MDA-MB-231
  GI50: > 100 µM (inactive)
MDA-MB-435
  GI50: > 100 µM (inactive)
MDA-N
  GI50: > 100 µM (inactive)
MOLT-4
  GI50: > 100 µM (inactive)
Malme-3M
  GI50: > 100 µM (inactive)
NCI-H226
  GI50: > 100 µM (inactive)
NCI-H23
  GI50: > 100 µM (inactive)
NCI-H460
  GI50: > 100 µM (inactive)
NCI-H522
  GI50: > 100 µM (inactive)
NCI/ADR-RES
  GI50: > 100 µM (inactive)
OVCAR-3
  GI50: > 100 µM (inactive)
OVCAR-4
  GI50: > 100 µM (inactive)
OVCAR-5
  GI50: > 100 µM (inactive)
OVCAR-8
  GI50: > 100 µM (inactive)
PC-3
  GI50: > 100 µM (inactive)
RPMI-8226
  GI50: > 100 µM (inactive)
RXF 393
  GI50: > 100 µM (inactive)
SF-268
  GI50: > 100 µM (inactive)
SF-295
  GI50: > 100 µM (inactive)
SF-539
  GI50: > 100 µM (inactive)
SK-MEL-28
  GI50: > 100 µM (inactive)
SK-MEL-2
  GI50: > 100 µM (inactive)
SK-MEL-5
  GI50: > 100 µM (inactive)
SK-OV-3
  GI50: > 100 µM (inactive)
SN12C
  GI50: > 100 µM (inactive)
SNB-19
  GI50: > 100 µM (inactive)
SNB-75
  GI50: > 100 µM (inactive)
SR
  GI50: > 100 µM (inactive)
SW-620
  GI50: > 100 µM (inactive)
T47D
  GI50: > 100 µM (inactive)
TK-10
  GI50: > 100 µM (inactive)
U-251
  GI50: > 100 µM (inactive)
UACC-257
  GI50: > 100 µM (inactive)
UACC-62
  GI50: > 100 µM (inactive)
UO-31
  GI50: > 100 µM (inactive)
